Legend:
human cell line K562 [1] = test: Erythroid differentiation of K562 cells (benzidine-positive cells); type: cell-based; conditions: for Erythroid differentiation (%) = percentage of K562 cells that react positively to benzidine: optimal concentration of each compound (cytosine arabinoside 1 μM, bergapten 200 μM, angelicin 400 μM), six experiments, control 3-4
Description: (§1) The biological activity of angelicin was evaluated by examining the capacity of that compound to modulate the expression of genes for gamma-globin in the human cell line K562, which is capable of differentiating in the erythroid manner by expressing genes for gamma-globin if subjected to treatment with modifiers of the biological response that are suitable for the purpose (3, 18, 19).
(§2) The level of differentiation was evaluated by analyzing the positive reaction of the cells to benzidine (3). The production of haemoglobin was evaluated by electrophoresis on cellulose acetate and by colouring the gel with a solution based on benzidine/H2O2 (3). The expression of the genes encoding for gamma-globin was evaluated by quantitative RT-PCR (reverse transcriptase PCR) (3).

[2] = system: gamma-globin mRNA in K562 cells; test: Gamma-globin mRNA accumulation in K562 cells by quantitative RT-PCR; type: cell-based, human; conditions: K562 cells treated for 6 days, cytosine arabinoside 1 μM, bergapten 200 μM, angelicin 400 μM, control = 1
Description: as §1, §2

[3] = system: gamma-globin mRNA in human erythroid precursors; test: Gamma-globin mRNA accumulation in human erythroid precursors isolated from peripheral blood (Fibach two-stage culture), quantitative RT-PCR; type: cell-based; conditions: for Gamma-globin mRNA, increase compared with untreated control erythroid precursors: human erythroid precursors, angelicin 500 μM, hydroxyurea 120 μM, control = 1, quantitative RT-PCR
From the text: In order to check whether angelicin was also capable of stimulating the production of mRNA for gamma-globin in human erythroid precursors isolated from peripheral blood, the technique published by Fibach et al. (20, 21) was used. This technique provides for two stages: in the first stage, the cells isolated from peripheral blood of a subject who is healthy or suffering from a haemopoietic pathology, such as sickle cell anaemia or beta-thalassaemia, are sown in a culture medium to which 10% of conditioned medium derived from the vesicle carcinoma cell line 5637 has been added. The second stage consists in cultivating the isolated cells in a suitable culture medium, supplemented by the erythropoietin hormone, 30% bovine foetal serum, 2-mercaptoethanol, albumin, glutamine and desamethasone in order to permit the proliferation and maturing of stem cells of the erythroid type. In this stage the cells can be treated with potential HbF inducers.

human cell line K562 [4] = test: Haemoglobin production in K562 cells (cellulose acetate electrophoresis, benzidine/H2O2 staining); type: cell-based; conditions: 400 μM angelicin for 6 days
Description: as §2

Compound	Erythroid differentiation (%) = percentage of K562 cells that react positively to benzidine (human cell line K562 [1])	percentage of K562 cells that react positively to benzidine (human cell line K562 [1]; angelicin 400 μM, 6 days, control K562 cells 3-4%)	Gamma-globin mRNA, increase compared with untreated control K562 cells [2]	increase in the production of mRNA for gamma-globin compared with the same untreated cells ([3]; human erythroid precursors from peripheral blood treated with angelicin)	Gamma-globin mRNA, increase compared with untreated control erythroid precursors [3]	chief haemoglobin produced (human cell line K562 [4])
O=c1ccc2ccc3occc3c2o1 [angelicin]	55-60%	55-60%	44.94	20.53 times	20.53	Hb Portland (alpha2gamma2)
COc1c2ccoc2cc2oc(=O)ccc12 [bergapten, 5-methoxypsoralen]	50-60%	–	3.48	–	–	–
Nc1ccn([C@@H]2O[C@H](CO)[C@@H](O)[C@@H]2O)c(=O)n1 [cytosine arabinoside, reference compound]	75-80%	–	3.24	–	–	–
NC(=O)NO [hydroxyurea, reference compound]	–	–	–	–	6.96	–
